Results reported in ChEMBL document CHEMBL4483862, “Open-source discovery of chemical leads for next-generation chemoprotective antimalarials” (2018).

Test system: Plasmodium berghei
Experiment: Luciferase/luciferin-expressing antifolate-resistant parasites were used to infect a culture of HepG2 cells that were pre-incubated with compounds. Infected hepatocytes emit light due to the luciferase reaction. Assay results are presented as the percent inhibition of light emission compared to control. […]
Type: functional
Details: sporozoite; for IC90: read-out: LUCIFERASE INFECTION ASSAY - IC90
[1] = read-out: LUCIFERASE INFECTION ASSAY - IC50

In the case of `Cc1ccc(C(=O)Nc2nc3ccccn3c2C(=O)NC2CCCCC2)cc1`, the IC50 (HEPG2TOX_HILL_SLOPE 2.97, HEPG2TOX_R_SQUARED 0.276, PBLUC_HILL_SLOPE 14.7, PBLUC_R_SQUARED 0.56, read-out: LUCIFERASE INFECTION ASSAY - IC50) is reported as 1 µM and the IC90 is reported as 1.16 µM.
In the case of `CC(=O)O[C@]1(C(C)=O)CCC2C3C[C@H](C)C4=CC(=O)CCC4(C)C3CCC21C` (some centres not stated), the IC50 (HEPG2TOX_HILL_SLOPE 11.5, HEPG2TOX_R_SQUARED 0.0757, read-out: LUCIFERASE INFECTION ASSAY - IC50) is reported as greater than 8.54 µM and the IC90 is reported as greater than 8.54 µM.
`COCC(C)n1c(C)cc(C(=O)COC(=O)c2cccc(C)c2C)c1C` (configuration not stated) was tested, and the IC50 (HEPG2TOX_HILL_SLOPE 0.0806, HEPG2TOX_R_SQUARED 0.082, PBLUC_HILL_SLOPE 4.05, PBLUC_R_SQUARED 0.617, read-out: LUCIFERASE INFECTION ASSAY - IC50) was 4.04 µM and the IC90 was 6.95 µM.
`O=C(c1ccc(-n2cccn2)cc1)N1CCC(n2c(=O)[nH]c3ccccc32)CC1` was tested, and the IC50 (HEPG2TOX_HILL_SLOPE 0.884, HEPG2TOX_R_SQUARED 0.19, PBLUC_HILL_SLOPE 11.8, PBLUC_R_SQUARED 0.218, read-out: LUCIFERASE INFECTION ASSAY - IC50) was 9.85 µM and the IC90 was greater than 10 µM.
`Fc1ccc(-c2cnn3c(NCc4cccs4)ccnc23)cc1Cl` was tested, and the IC50 (PBLUC_HILL_SLOPE 0.723, PBLUC_R_SQUARED 0.681, read-out: LUCIFERASE INFECTION ASSAY - IC50) was 0.38 µM and the IC90 was 7.94 µM.
Molecule `Clc1ccccc1-c1nc2ccnc(NCCc3ccccn3)c2[nH]1` has an IC50 (HEPG2TOX_HILL_SLOPE 2.25, HEPG2TOX_R_SQUARED 0.756, PBLUC_HILL_SLOPE 1.33, PBLUC_R_SQUARED 0.656, read-out: LUCIFERASE INFECTION ASSAY - IC50) of 5.37 µM and an IC90 greater than 10 µM.
For `Cc1cc(C2=NNC(=NC3CC3)SC2)c(C)n1-c1ccc2c(c1)OCO2`, the IC50 (FFLUC_HILL_SLOPE 2.46, FFLUC_R_SQUARED 0.719, PBLUC_HILL_SLOPE 1.67, PBLUC_R_SQUARED 0.595, read-out: LUCIFERASE INFECTION ASSAY - IC50) was 2.61 µM and the IC90 was 9.71 µM.
With `Nc1ncc(-c2cccc(O)c2)cc1-c1cccc(C(F)(F)F)c1` the IC50 (HEPG2TOX_HILL_SLOPE 7.78, HEPG2TOX_R_SQUARED 0.72, PBLUC_HILL_SLOPE 13.3, PBLUC_R_SQUARED 0.696, read-out: LUCIFERASE INFECTION ASSAY - IC50) was 3.18 µM and the IC90 was 3.76 µM.
With `C=CCN(C(=O)c1cccc(S(=O)(=O)N2CCCC2)c1)c1nc2c(s1)CCCC2` the IC50 (HEPG2TOX_HILL_SLOPE 2.26, HEPG2TOX_R_SQUARED 0.795, PBLUC_HILL_SLOPE 11.6, 3.98, PBLUC_R_SQUARED 0.244, 0.586, read-out: LUCIFERASE INFECTION ASSAY - IC50) was 7.23 µM and the IC90 was 8.77 µM.
Molecule `Clc1ccc(Nc2nccc3c2ncn3Cc2ccccc2)cc1` has an IC50 (HEPG2TOX_HILL_SLOPE 10.4, HEPG2TOX_R_SQUARED 0.978, PBLUC_HILL_SLOPE 0.755, PBLUC_R_SQUARED 0.638, read-out: LUCIFERASE INFECTION ASSAY - IC50) of 0.827 µM and an IC90 greater than 10 µM.
Work on `C[C@]12CC[C@@H]3c4ccc(O)cc4CC[C@H]3[C@@H]1CC[C@@H]2O` [ESTRADIOL] yielded an IC50 [1] of 5.43 µM and an IC90 of 9.85 µM.
In the case of `CSc1sc(-c2ccnc(SCc3ccc(Cl)cc3)n2)c(-c2ccccc2)c1C#N`, the IC50 (PBLUC_HILL_SLOPE 3.73, PBLUC_R_SQUARED 0.295, read-out: LUCIFERASE INFECTION ASSAY - IC50) is reported as 4.71 µM and the IC90 is reported as greater than 7.08 µM.
In the case of `FC(F)(F)c1nnc2ccc(Oc3ccc(Cl)c4ccccc34)nn12`, the IC50 [1] is reported as greater than 10 µM and the IC90 is reported as greater than 10 µM.
`CC(=O)N(c1nc(/C=C/C(=O)c2cccc(Br)c2)cs1)c1ccc(F)cc1F` gave an IC50 (PBLUC_HILL_SLOPE 1.24, PBLUC_R_SQUARED 0.477, read-out: LUCIFERASE INFECTION ASSAY - IC50) of 8.87 µM and an IC90 greater than 10 µM.
With `CC(=O)c1cccc(-c2cnc3ccc(-c4cccc(OC(F)(F)F)c4)nn23)c1` the IC50 (HEPG2TOX_HILL_SLOPE 7.2, HEPG2TOX_R_SQUARED 0.65, PBLUC_HILL_SLOPE 0.974, PBLUC_R_SQUARED 0.617, read-out: LUCIFERASE INFECTION ASSAY - IC50) was 1.38 µM and the IC90 was greater than 10 µM.
`COc1ccc(F)cc1CN(Cc1ccc(C(=O)NC2CC2)cc1)Cc1ccco1` showed an IC50 (HEPG2TOX_HILL_SLOPE 2.87, HEPG2TOX_R_SQUARED 0.785, PBLUC_HILL_SLOPE 1.38, 16.4, PBLUC_R_SQUARED 0.804, 0.717, read-out: LUCIFERASE INFECTION ASSAY - IC50) of 0.286 µM and an IC90 of 0.722 µM.
For `Nc1nc(SCC(=O)NC2CCCc3ccccc32)nc2sccc12` (configuration not stated), the IC50 (PBLUC_HILL_SLOPE 8.94, PBLUC_R_SQUARED 0.274, read-out: LUCIFERASE INFECTION ASSAY - IC50) was 9.02 µM and the IC90 was greater than 10 µM.
For `O=C(NC(c1ccccc1)C1CC1)C1=NN(c2ccccc2)C(=O)CN1` (configuration not stated), the IC50 (PBLUC_HILL_SLOPE 18.7, PBLUC_R_SQUARED 0.556, read-out: LUCIFERASE INFECTION ASSAY - IC50) was 8.76 µM and the IC90 was 9.85 µM.
In the case of `O=C(O)Cc1csc(-c2cc(Br)cs2)n1`, the IC50 [1] is reported as greater than 10 µM and the IC90 is reported as greater than 10 µM.
For `Cc1nc(SCc2ccc(C(F)(F)F)cc2)n(C)c(=O)c1Oc1ccc(F)cc1`, the IC50 [1] was greater than 7.78 µM and the IC90 was greater than 7.78 µM.
In the case of `Cc1nc2ccccc2nc1SC(C)C(=O)c1c[nH]c2ccccc12` (configuration not stated), the IC50 (HEPG2TOX_HILL_SLOPE 0.739, HEPG2TOX_R_SQUARED 0.941, PBLUC_HILL_SLOPE 2.85, PBLUC_R_SQUARED 0.882, read-out: LUCIFERASE INFECTION ASSAY - IC50) is reported as 0.916 µM and the IC90 is reported as 1.98 µM.
For `COc1ccc(CNc2ccc3ncc(-c4ccc(Cl)cc4)n3n2)cc1`, the IC50 (HEPG2TOX_HILL_SLOPE 3.82, HEPG2TOX_R_SQUARED 0.951, PBLUC_HILL_SLOPE 9.74, PBLUC_R_SQUARED 0.491, read-out: LUCIFERASE INFECTION ASSAY - IC50) was 3.73 µM and the IC90 was 4.67 µM.
`CC(C(=O)Nc1cccnc1)c1ccc2c(c1)[nH]c1ccc(Cl)cc12` (configuration not stated) was tested, and the IC50 (HEPG2TOX_HILL_SLOPE 3.6, HEPG2TOX_R_SQUARED 0.842, PBLUC_HILL_SLOPE 14.2, PBLUC_R_SQUARED 0.432, read-out: LUCIFERASE INFECTION ASSAY - IC50) was 8.79 µM and the IC90 was greater than 9.43 µM.
For `CCOC(=O)c1[nH]c2c(c1C)C(=O)/C(=C/c1ccc(Cl)cc1)CC2`, the IC50 [1] was greater than 10 µM and the IC90 was greater than 10 µM.
`CNc1nc2cnc(-c3cccc4ccccc34)cc2n1-c1ccccc1` was tested, and the IC50 (PBLUC_HILL_SLOPE 1.54, PBLUC_R_SQUARED 0.64, read-out: LUCIFERASE INFECTION ASSAY - IC50) was 4.99 µM and the IC90 was greater than 10 µM.
For `N#C/C(=C\c1cn(Cc2ccccc2)nc1-c1cccnc1)c1ccc([N+](=O)[O-])cc1`, the IC50 [1] was 0.786 µM and the IC90 was 1.62 µM.
Molecule `CNc1nc2cnc(Nc3cccc(OC(F)(F)F)c3)cc2n1CCOC` has an IC50 (HEPG2TOX_HILL_SLOPE 6.78, HEPG2TOX_R_SQUARED 0.0669, read-out: LUCIFERASE INFECTION ASSAY - IC50) greater than 10 µM and an IC90 greater than 10 µM.
`O=C(Nc1ccc2nc(Cc3ccccc3)nn2c1)NC1CCCCC1` gave an IC50 (HEPG2TOX_HILL_SLOPE 5.83, HEPG2TOX_R_SQUARED 0.978, PBLUC_HILL_SLOPE 13.4, PBLUC_R_SQUARED 0.389, read-out: LUCIFERASE INFECTION ASSAY - IC50) of 3.05 µM and an IC90 of 3.6 µM.
Molecule `CCOC(=O)C1=C(Cn2ccnc2)NC(=O)NC1CC` (configuration not stated) has an IC50 [1] greater than 10 µM and an IC90 greater than 10 µM.
`O=C(CN1CCNCC1)N1CCOCC1` gave an IC50 [1] greater than 15.5 µM and an IC90 greater than 15.5 µM.
Work on `COc1ccc(NS(=O)(=O)c2cc(NC(=O)c3ccsc3)ccc2Cl)cc1` yielded an IC50 (HEPG2TOX_HILL_SLOPE 1.65, HEPG2TOX_R_SQUARED 0.932, PBLUC_HILL_SLOPE 10.6, PBLUC_R_SQUARED 0.586, read-out: LUCIFERASE INFECTION ASSAY - IC50) of 0.34 µM and an IC90 of 0.419 µM.
Work on `Cn1cc(C(=O)c2ccccc2O)cc1-c1nc2ccccc2[nH]1` yielded an IC50 (HEPG2TOX_HILL_SLOPE 8.08, HEPG2TOX_R_SQUARED 0.741, PBLUC_HILL_SLOPE 7.01, PBLUC_R_SQUARED 0.754, read-out: LUCIFERASE INFECTION ASSAY - IC50) of 3.61 µM and an IC90 of 4.94 µM.
`CC(C)(C)NC(=S)N/N=C/c1cc(Cl)cc(Cl)c1O` gave an IC50 (HEPG2TOX_HILL_SLOPE 1.14, HEPG2TOX_R_SQUARED 0.984, PBLUC_HILL_SLOPE 2.14, PBLUC_R_SQUARED 0.291, read-out: LUCIFERASE INFECTION ASSAY - IC50) of 2.39 µM and an IC90 of 6.66 µM.
`CNC(=O)c1ccc(CN(CCOc2cccc(F)c2)C2CC2)cc1` gave an IC50 (PBLUC_HILL_SLOPE 4.75, PBLUC_R_SQUARED 0.3, read-out: LUCIFERASE INFECTION ASSAY - IC50) of 6.72 µM and an IC90 greater than 10 µM.
Molecule `COc1ccc(CNCc2ccc(N3CCCCCC3)cc2)cc1` has an IC50 (PBLUC_HILL_SLOPE 0.677, PBLUC_R_SQUARED 0.204, read-out: LUCIFERASE INFECTION ASSAY - IC50) greater than 10 µM and an IC90 greater than 10 µM.
For `COc1ccc(C(N)c2csc(NC(=O)Nc3cccc(C#N)c3)n2)cc1` (configuration not stated), the IC50 (PBLUC_HILL_SLOPE 15.3, PBLUC_R_SQUARED 0.483, read-out: LUCIFERASE INFECTION ASSAY - IC50) was 2.97 µM and the IC90 was 3.43 µM.
`CC(Sc1nc(-c2ccccc2)c(-c2ccccc2)o1)C(=O)N1CCNC1=O` (configuration not stated) showed an IC50 [1] greater than 10 µM and an IC90 greater than 10 µM.
Work on `Cc1nc2ccccc2nc1SCC(=O)Nc1ccccc1N1CCOCC1` yielded an IC50 [1] greater than 10 µM and an IC90 greater than 10 µM.
Work on `NC(=O)NC(CC(=O)NCc1cccs1)c1cccc(Oc2ccccc2)c1` (configuration not stated) yielded an IC50 (FFLUC_HILL_SLOPE 0.589, FFLUC_R_SQUARED 0.0522, PBLUC_HILL_SLOPE 12.1, PBLUC_R_SQUARED 0.469, read-out: LUCIFERASE INFECTION ASSAY - IC50) of 9.25 µM and an IC90 greater than 10 µM.
For `CC(NC(=O)CN1CCCc2c(F)cc(F)cc21)c1ccco1` (configuration not stated), the IC50 [1] was greater than 10 µM and the IC90 was greater than 10 µM.
`CC(Nc1ccc(C(F)(F)F)cc1[N+](=O)[O-])C(=O)Nc1ccccc1C(=O)Nc1cccc(Cl)c1` (configuration not stated) was tested, and the IC50 [1] was greater than 10 µM and the IC90 was greater than 10 µM.
